Results reported in patent US20180311364A1, “Protease Triggered Release Of Molecules From Hydrogels” (The Trustees of the University of Pennsylvania, priority 2010, published 2018).

Assay: Triggered release of ilomastat from HA-aldehyde / HA-peptide-hydrazide hydrogel
Format: physicochemical
Experimental: Ilomastat was ground into a fine powder of uniform microparticles. These microparticles were suspended in the dissolved HA-aldehyde and HA-peptide-hydrazide solutions at 10 μg per 100 μL of polymer solution. At this concentration ilomastat remains a solid particle within the polymer solution. HA-aldehyde and HA-peptide-hydrazide polymers were mixed 1:1 aldehdye:hydrazide to induce crosslinking into a solid gel. The gels were incubated in phosphate buffered saline at 37° C. After 14 days less than 10% of the ilomastat was released from the gels due to hydrophobic interactions of the ilomastat in the microparticles. The gels were then exposed to collagenase 200 U/mL and the gels degraded.

ilomastat released from the gels (gels incubated in phosphate buffered saline at 37° C., after 14 days, ilomastat microparticles 10 μg per 100 μL polymer solution): less than 10%
Structure (SMILES): CNC(=O)[C@H](Cc1c[nH]c2ccccc12)NC(=O)[C@@H](CC(=O)NO)CC(C)C [ilomastat, Ilomastat]
ilomastat release after gel degradation (HPLC) (gels exposed to collagenase 200 U/mL after 14 days in PBS, gels degraded): solubilized in the larger volume of the buffer
